Test systems include COLO 205 colon; HCT-15 colon; K-562 leukemia; KM12 colon; OVCAR-3 ovarian; OVCAR-5 ovarian; SK-MEL-28 melanoma; SNB-19 CNS; SR leukemia; UACC-62 melanoma.
Holding throughout (test): growth of human tumour cells (NCI), 48 h

The structures appear in SMILES notation. Where “and” joins values, the source holds several entries; their conditions need not be identical. Identical values can stand only once.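 Briefly, cells in 96-well plates were exposed to five compound concentrations for 48 h, and endpoints were estimated by linear interpolation. GI50 is the concentration that inhibits growth by half. TGI: concentration producing complete growth inhibition.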

For `COC(=O)c1csc(-c2nc(CCNC(=O)OC(C)(C)C)sc2Br)n1`, the TGI with COLO 205 colon, in the assay on HCT-15 colon, in the assay on K-562 leukemia, in the assay on KM12 colon, in the assay on OVCAR-3 ovarian and in the assay on OVCAR-5 ovarian was above 100 µM throughout. Moreover, the TGI in the assay with SK-MEL-28 melanoma, in the assay with SNB-19 CNS, in the assay with SR leukemia and in the assay with UACC-62 melanoma was above 100 µM in each case.
On to `N#CC(C(=O)C(=O)NCCCNC(=O)C(=O)C(C#N)c1ccccc1)c1ccccc1` (configuration not stated), for which the TGI in the assay on COLO 205 colon, in the assay with HCT-15 colon, in the assay with K-562 leukemia, in the assay with KM12 colon, with OVCAR-3 ovarian and in the assay with OVCAR-5 ovarian was above 100 µM throughout. Moreover, the TGI with SK-MEL-28 melanoma, with SNB-19 CNS, in the assay with SR leukemia and in the assay with UACC-62 melanoma was above 100 µM in each case.
On to `CN(C)c1ccc2cc(-c3ccccc3F)c(N)nc2c1`, for which the GI50 in the assay on COLO 205 colon is 1.38 µM; with HCT-15 colon, 0.469 µM; in the assay with K-562 leukemia, 0.393 µM; in the assay with KM12 colon, 0.89 µM; with OVCAR-3 ovarian it was 0.922 µM; in the assay with OVCAR-5 ovarian, 3.55 µM. Also, the GI50 in the assay on SK-MEL-28 melanoma is 2.57 µM; in the assay on SNB-19 CNS it was 3.1 µM; in the assay with SR leukemia it was 0.491 µM; with UACC-62 melanoma it was 0.89 µM. In addition, the TGI in the assay on COLO 205 colon is 6.35 µM; with HCT-15 colon, 13.2 µM; in the assay with K-562 leukemia, 16.6 µM; in the assay on KM12 colon, 14.9 µM; with OVCAR-3 ovarian, 7.62 µM; with OVCAR-5 ovarian, 17.8 µM. The TGI in the assay with SK-MEL-28 melanoma amounted to 19.6 µM; in the assay on SNB-19 CNS, 19.2 µM; in the assay with SR leukemia it was 4.99 µM; with UACC-62 melanoma, 12 µM.
As to `CC1=C(O)C(=O)C2C(=O)C1C(C)C2c1ccc(Cl)cc1` (configuration not stated), the TGI with COLO 205 colon, with HCT-15 colon, with K-562 leukemia, in the assay with KM12 colon, in the assay on OVCAR-3 ovarian and in the assay on OVCAR-5 ovarian was above 100 µM throughout. The TGI with SK-MEL-28 melanoma, in the assay with SNB-19 CNS, in the assay on SR leukemia and with UACC-62 melanoma was above 100 µM throughout.
On to `Nc1nc2c(c(=O)[nH]1)CN(c1ccc(S(N)(=O)=O)cc1)CN2`, for which the TGI with COLO 205 colon, in the assay with HCT-15 colon, with K-562 leukemia, in the assay with KM12 colon, with OVCAR-3 ovarian and in the assay with OVCAR-5 ovarian was above 100 µM each time. In addition, the TGI in the assay with SK-MEL-28 melanoma, in the assay with SNB-19 CNS, with SR leukemia and in the assay with UACC-62 melanoma was above 100 µM in each case.
Take `CCOc1ccc(NCc2cc(OC)c(OC)c(OC)c2)cc1`: the TGI was 2.46 µM and 5.04 µM in the assay on COLO 205 colon; 45.9 µM and 32.7 µM in the assay with HCT-15 colon; above 63.1 µM with K-562 leukemia; > 81.5 µM and 46.4 µM in the assay with KM12 colon; 1.65 µM and 2.22 µM in the assay with OVCAR-3 ovarian; above 93.8 µM in the assay with OVCAR-5 ovarian. Moreover, the TGI in the assay on SK-MEL-28 melanoma, in the assay on SNB-19 CNS, in the assay with SR leukemia and in the assay on UACC-62 melanoma was above 100 µM each time. Further, the GI50 with OVCAR-5 ovarian is 10.5 µM and 4.43 µM; with SNB-19 CNS it was 4.9 µM.
Consider `Clc1nc(Cl)c2c(ncn2C/C=C\Cn2cnc3c(Cl)nc(Cl)nc32)n1`, for which the GI50 is 1.46 µM in the assay on COLO 205 colon; 1.5 µM in the assay on HCT-15 colon; 0.801 µM in the assay on K-562 leukemia; 1.82 µM with KM12 colon; 1.68 µM in the assay on OVCAR-3 ovarian; 1.96 µM in the assay with OVCAR-5 ovarian. Also, the GI50 in the assay on SK-MEL-28 melanoma is 1.66 µM; in the assay with SNB-19 CNS, 1.66 µM; in the assay on SR leukemia it was 0.218 µM; in the assay with UACC-62 melanoma it was 1.83 µM. Besides, the TGI came out at 3.01 µM in the assay with COLO 205 colon; 3.2 µM in the assay on HCT-15 colon; 21.1 µM with K-562 leukemia; 3.41 µM in the assay with KM12 colon; 3.04 µM in the assay with OVCAR-3 ovarian; 3.74 µM in the assay with OVCAR-5 ovarian. For the same compound, the TGI in the assay on SK-MEL-28 melanoma is 3.02 µM; in the assay with SNB-19 CNS, 3.16 µM; in the assay on SR leukemia it was 0.813 µM; in the assay on UACC-62 melanoma, 4.09 µM.
As for `C=C1CC[C@@H]2[C@](C)(COC(C)=O)[C@H](OC(C)=O)CC[C@@]2(C)[C@@H]1CC(Nc1ccc(S(=O)(=O)Nc2nccc(C)n2)cc1)C1=CCOC1=O` (some centres not stated), the GI50 in the assay on COLO 205 colon was 2.09 µM; with HCT-15 colon, 1.79 µM; in the assay with K-562 leukemia it was 2.97 µM; in the assay with KM12 colon, 4.59 µM; in the assay on OVCAR-3 ovarian it was 1.76 µM; with OVCAR-5 ovarian, 3.86 µM. Besides, the GI50 in the assay on SK-MEL-28 melanoma was 2.83 µM; in the assay on SNB-19 CNS it was 6.3 µM; in the assay with SR leukemia it was 0.753 µM; with UACC-62 melanoma, 2.38 µM. For the same compound, the TGI in the assay with COLO 205 colon came to 4.66 µM; in the assay with HCT-15 colon it was 4.24 µM; in the assay on K-562 leukemia, 21.7 µM; in the assay with KM12 colon, 16.4 µM; in the assay with OVCAR-3 ovarian, 3.36 µM; in the assay with OVCAR-5 ovarian, 12.8 µM. The TGI was 10.1 µM in the assay on SK-MEL-28 melanoma, 20.7 µM with SNB-19 CNS, above 100 µM in the assay on SR leukemia and 7.13 µM with UACC-62 melanoma.
Consider `COC(=O)C1C2C=CC(C2)N1[C@@H](C)c1ccccc1` (some centres not stated), for which the TGI with COLO 205 colon, in the assay on HCT-15 colon, with K-562 leukemia, in the assay with KM12 colon, with OVCAR-3 ovarian and in the assay with OVCAR-5 ovarian was above 100 µM each time. For the same compound, the TGI with SK-MEL-28 melanoma, in the assay with SNB-19 CNS, with SR leukemia and in the assay on UACC-62 melanoma was above 100 µM each time.
Regarding `C=C1C(=O)O[C@H]2[C@H]1CC/C(COC(=O)N1CCC[C@H]1C(=O)Nc1ccc(OC)c(C(N)=O)c1O)=C\CC[C@@]1(C)O[C@@H]21`, the GI50 in the assay with COLO 205 colon was 1.6 µM; with HCT-15 colon, 4.34 µM; in the assay on K-562 leukemia, 2.43 µM; in the assay on KM12 colon, 5.53 µM; in the assay with OVCAR-3 ovarian it was 1.86 µM; with OVCAR-5 ovarian, 4.41 µM. Further, the GI50 in the assay on SK-MEL-28 melanoma is 2.87 µM; in the assay on SNB-19 CNS, 7.62 µM; in the assay with SR leukemia it was 1.59 µM; in the assay on UACC-62 melanoma, 2.39 µM. Moreover, the TGI in the assay with COLO 205 colon amounted to 3.28 µM; with HCT-15 colon it was 17.2 µM; with K-562 leukemia it was 10.2 µM; in the assay with KM12 colon it was 20 µM; in the assay with OVCAR-3 ovarian, 4.48 µM; with OVCAR-5 ovarian, 18.2 µM. Also, the TGI in the assay with SK-MEL-28 melanoma stood at 10.2 µM; in the assay with SNB-19 CNS, 23.9 µM; with SR leukemia, 12.7 µM; in the assay on UACC-62 melanoma, 7.66 µM.

(Values after PubChem BioAssay (NCI).)
